In ChEMBL document CHEMBL1152889, “Melatonin: Quantum-chemical and biochemical investigation of antioxidant activity” (2009):

What was measured:
Homo sapiens [1] = test: Antioxidant activity against lipid peroxidation in chronic renal failure patient plasma assessed as malondialdehyde level at 2 mg/kg treated once day before night sleep measured after 2 months by thiobarbituric acid based spectrophotometry (Rvb=2.68 +/- 0.44 umol/L); format: functional
Homo sapiens [2] = test: Antioxidant activity against lipid peroxidation in chronic renal failure patient plasma assessed as malondialdehyde level at 2 mg/kg treated once day before night sleep measured after 3 months by thiobarbituric acid based spectrophotometry (Rvb=2.68 +/- 0.44 umol/L); format: functional
Homo sapiens [3] = test: Antioxidant activity against lipid peroxidation in chronic renal failure patient plasma assessed as malondialdehyde level at 2 mg/kg treated once day before night sleep measured after 1 month by thiobarbituric acid based spectrophotometry (Rvb=2.68 +/- 0.44 umol/L); format: functional
Homo sapiens [4] = test: Antioxidant activity against lipid peroxidation in chronic renal failure patient plasma assessed as reduction in malondialdehyde level at 2 mg/kg treated once day before night sleep by thiobarbituric acid based spectrophotometry (Rvb=2.68 +/- 0.44 umol/L); format: functional, organism-based; set-up: dose 2 mg/kg; settings: TDE = time-dependent effect

## COc1ccc2[nH]cc(CCNC(C)=O)c2c1 [MELATONIN]
Homo sapiens [1]
  Activity: 3.09 µM
Homo sapiens [2]
  Activity: 2.79 µM
Homo sapiens [3]
  Activity: 4.02 µM
Homo sapiens [4]
  Activity: tde
